# Data: patent US20230080670A1, “METHODS AND COMPOSITIONS FOR TREATING TUMORS USING TRANSCRIPTION INHIBITION AND DNA DAMAGE” (ARIZONA BOARD OF REGENTS ON BEHALF OF THE UNIVERSITY OF …, priority 2019, published 2023)
# Entries after “also recorded” stand apart in the source; their conditions may differ.
# What was measured:
# [1] = test system: A673 cells; assay: MTT cell survival assay, A673 Ewing's sarcoma cell line; format: cell-based; details: 96 hours
# Procedure: It was tested whether the functional interaction of EWS or FUS with the fusion protein driving Ewing's sarcoma would make these cells exceptionally sensitive to transcription inhibitors.
# The DNA damage agent SN38 and the transcription inhibitor flavopiridol were titrated, and cell survival was measured after 96 hours using an MTT assay (see FIG. 3A).
# [2] = test system: gammaH2Ax; assay: Western blot of gammaH2Ax DNA damage response, A673 cells; format: cell-based
# [3] = test system: gammaH2Ax; assay: Western blot of gammaH2Ax DNA damage response, HEK293 cells; format: cell-based; details: flavopiridol added to SN38, 24 hours
# Procedure: All doses shown are in nanomolar, nM.
# Western blot analysis: Protein lysates concentrations were quantified using BCA Protein Assay (Pierce). 5-10 ug of protein sample was loaded onto 7.5% SDS-PAGE gels. Standard western blot protocols were followed. Blots were transferred at 500 mA, blocked in 5% nonfat dried milk in TBS-T, and incubated overnight with primary antibody at 4° C. Blots were washed in TBS-T, incubated in secondary antibody for 1 hour at room temperature, washed again in TBS-T, and imaged after the addition of SuperSignal™ West Pico PLUS Chemiluminescent substrate (Thermo Scientific). Western blots were imaged on the ChemiDoc.
# [4] = test system: patients; details: therapeutic doses; cited from earlier work
Structure (SMILES),"toxicity (cell survival, MTT assay) ([1]; 1.3 nM SN38 alone)","gammaH2Ax DNA damage response ([2]; SN38 for 24 hours without transcription inhibitor, Ewing's sarcoma cell line)",effect on gammaH2Ax response to DNA damage [3],toxicity in patients [4],"toxicity (cell survival, MTT assay) ([1]; 100 nM flavopiridol alone)","inhibition of the gamma H2Ax response to DNA damage (quantification of western blots) ([2]; A673 cells, 10 nM, 50 nM and 100 nM flavopiridol)","effect on phosphorylation of histone to gammaH2Ax (DNA damage response) ([2]; transcription inhibitor added to SN38, 24 hours, Ewing's sarcoma cell line)"
CCc1c2c(nc3ccc(O)cc13)-c1cc3c(c(=O)n1C2)COC(=O)[C@]3(O)CC [SN38],No toxicity,standard DNA damage response,,,,,
CN1CC[C@H](c2c(O)cc(O)c3c(=O)cc(-c4ccccc4Cl)oc23)[C@H](O)C1 [flavopiridol],,,does not prevent the normal cellular response to DNA damage; also recorded: had no such effect,significant toxicity,No toxicity,dose-dependent inhibition,prevented this event
